From patent US20250161317A1, “MOLIDUSTAT FORMULATIONS AND METHODS OF USE FOR TREATMENT OF ANEMIA IN CATS” (ELANCO US INC., priority 2022, published 2025)

What was measured:
Assay type in all cases: in vivo, cat
healthy, adult cats [1] = test: Tolerability and safety in healthy adult cats, daily oral dosing (Example 3); conditions: once daily oral
Text: (§1) Twenty-two adult cats were randomized to three treatment groups and one control group with 5 and 6 cats/group respectively (3 (2) male/3 female). After a baseline phase of two weeks the cats were orally treated in fasted condition once daily. […] The oily suspensions were in accordance with the oily suspension described in Example 1.
Treatments had no impact on the cats' body weight. None of the findings observed during the physical examinations or general health observations were rated as having a negative impact on the outcome of the study. The most frequently observed findings were vomiting of small amounts of fluid.

Erythropoietin (EPO) = test: EPO plasma concentrations in healthy adult cats, daily oral dosing; conditions: 6 hours post treatment, all study days measured
Text: (§2) This study evaluated the effects of molidustat on red blood cell parameters in healthy, adult cats, if administered daily via the oral route at different dosages and using different formulations of molidustat sodium. The hematocrit, erythropoietin (EPO) and molidustat plasma concentrations during the treatment phase were examined, with hematocrit representing the main outcome parameter.
as §1
(§3) For evaluation of the hematological parameters blood samples were taken at regular intervals before, during and after the treatment phase. Additionally, plasma samples were collected at study day (SD) 0, SD 7 and SD 23 before and after treatment and analyzed for their concentration of EPO and molidustat.

healthy, adult cats [2] = test: Pharmacodynamic effects on hematocrit in healthy adult cats, daily oral dosing
Text: as §2, §1
To keep the application volume per kg bodyweight (BW) consistent for each animal the oily suspension of molidustat was available at two different concentrations (5% and 10%), so that each cat was treated with 0.1 mL/kg BW of the respective formulation.
as §3

[Na+].[O-]c1c(-n2ccnn2)cnn1-c1cc(N2CCOCC2)ncn1 [molidustat sodium, sodium 1-[6-(morpholin-4-yl)pyrimidin-4-yl]-4-(1H-1,2,3-triazol-1-yl)-1H-pyrazol-5-olate]
tolerability and safety (healthy, adult cats [1]; all study groups): very well tolerated and safe
impact on body weight (healthy, adult cats [1]): no impact
EPO concentrations compared to the placebo group (Erythropoietin (EPO)): significantly differed
mean hematocrit compared to placebo (healthy, adult cats [2]; 5 mg/kg once daily oral, at SD 14): significantly higher
mean hematocrit compared to placebo (healthy, adult cats [2]; 10 mg/kg once daily oral, already at SD 7): significantly higher
study day from which mean hematocrit was comparable to placebo group (healthy, adult cats [2]; after cessation of treatment): SD 70
study day on which mean hematocrit returned to levels within reference range (healthy, adult cats [2]; after cessation of treatment): SD 56
hematocrit relative to reference range (healthy, adult cats [2]; all treated animals, for up to 42 days after treatment): increase in hematocrit above the reference range
